Where “and” joins values, the source holds several entries; their conditions need not be identical. Equal entries are not always repeated. Inconclusive results and toxic doses are left out.

This assay has as its system BDF1 mice, P388 leukemia ip, median survival T/C. Kind of assay: NCI In Vivo Anticancer Drug Screen. Data for tumor model P388 Leukemia (intraperitoneal) in B6D2F1 (BDF1) mice. The conditions noted are these: endpoint: median survival time, higher = longer survival. As for the experimental part:
The antitumor activity of compounds was measured in mice bearing transplantable tumors. Survival or tumor size were measured and the results are expressed as the measurement made in the treated group (T) divided by the measurement made in the vehicle treated control group (C). The tumor model used in this assay is P388 Leukemia (intraperitoneal) in B6D2F1 (BDF1) mice

Where [1] appears, read: dose: 100.0 mg/kg/injection, schedule: Q04DX003 (ip), vehicle: saline.
[2] abbreviates: dose: 100.0 mg/kg/injection, schedule: Q01DX009 (ip), vehicle: saline with Tween-80.
[3] abbreviates: dose: 200.0 mg/kg/injection, schedule: Q01DX009 (ip), vehicle: saline with Tween-80.
The mark [4] stands for this setting: dose: 400.0 mg/kg/injection, schedule: Q01DX009 (ip), vehicle: saline with Tween-80.
The mark [5] stands for this setting: dose: 50.0 mg/kg/injection, schedule: Q01DX009 (ip), vehicle: Klucel (hydroxypropylcellulose) (HPC).
Where [6] appears, read: dose: 100.0 mg/kg/injection, schedule: Q01DX009 (ip), vehicle: Klucel (hydroxypropylcellulose) (HPC).
Setting [7] is: dose: 200.0 mg/kg/injection, schedule: Q01DX009 (ip), vehicle: Klucel (hydroxypropylcellulose) (HPC).
The mark [8] stands for this setting: dose: 400.0 mg/kg/injection, schedule: Q01DX009 (ip), vehicle: Klucel (hydroxypropylcellulose) (HPC).
The mark [9] stands for this setting: dose: 100.0 mg/kg/injection, schedule: Q04DX003 (ip), vehicle: Klucel (hydroxypropylcellulose) (HPC).
The mark [10] stands for this setting: dose: 400.0 mg/kg/injection, schedule: Q04DX003 (ip), vehicle: Klucel (hydroxypropylcellulose) (HPC).
The mark [11] stands for this setting: dose: 200.0 mg/kg/injection, schedule: Q04DX003 (ip), vehicle: saline with Tween-80.

Consider `NC(N)=Nc1ccc(C(=O)Nc2ccc([N+](=O)[O-])cc2)cc1`, for which the T/C (dose: 50.0 mg/kg/injection, schedule: Q01DX009 (ip), vehicle: saline) was 101 % of control; the T/C (dose: 100.0 mg/kg/injection, schedule: Q01DX009 (ip), vehicle: saline) is 103 % of control; the T/C under setting [1] was 97 % of control; the T/C (dose: 200.0 mg/kg/injection, schedule: Q01DX009 (ip), vehicle: saline) is 91 % of control; the T/C (dose: 200.0 mg/kg/injection, schedule: Q04DX003 (ip), vehicle: saline) is 91 % of control; the T/C (dose: 400.0 mg/kg/injection, schedule: Q04DX003 (ip), vehicle: saline) was 100 % of control.
Turning to `O=C(NCCCl)N(CCCl)C(=O)Oc1c(Cl)cc(Cl)cc1Cl`, the T/C is 100 % of control (dose: 50.0 mg/kg/injection, schedule: Q01DX005 (ip), vehicle: saline with Tween-80); 112 % of control (dose: 100.0 mg/kg/injection, schedule: Q01DX005 (ip), vehicle: saline with Tween-80); 100 % of control (dose: 200.0 mg/kg/injection, schedule: Q01DX005 (ip), vehicle: saline with Tween-80).
For the compound `CC(OC(=O)Nc1ccccc1)C(=O)O` (centres undefined), the T/C under setting [2] was 88 % of control, the T/C under setting [3] was 92 % of control and the T/C under setting [4] is 103 % of control.
In the case of `O=C(Nc1ccc(F)cc1F)Oc1cccc2cccnc12`, the T/C is, setting by setting: under setting [5], 104 % of control; under setting [6], 106 % of control; under setting [7], 113 % of control; under setting [8], 104 % of control.
As to `Cc1cc(N(C)C)ccc1C=O`, the T/C is, setting by setting: under setting [6], 100 % of control; under setting [9], 100 % of control; under setting [7], 95 % of control; under setting [8], 109 % of control; under setting [10], 91 % of control.
In the case of `COc1ccc(OC)c(/C=C/[N+](=O)[O-])c1`, the T/C (dose: 12.5 mg/kg/injection, schedule: Q01DX009 (ip), vehicle: Klucel (hydroxypropylcellulose) (HPC)) was 108 % of control; the T/C (dose: 25.0 mg/kg/injection, schedule: Q01DX009 (ip), vehicle: Klucel (hydroxypropylcellulose) (HPC)) was 113 % of control and 120 % of control; the T/C under setting [5] is 113 % of control; the T/C under setting [6] was 116 % of control.
Take `CC[S+](CC)CC`: the T/C (dose: 12.5 mg/kg/injection, schedule: Q04DX003 (ip), vehicle: saline) was 109 % of control; the T/C (dose: 25.0 mg/kg/injection, schedule: Q01DX001 (ip), vehicle: saline) was 100 % of control; the T/C (dose: 25.0 mg/kg/injection, schedule: Q04DX003 (ip), vehicle: saline) was 109 % of control; the T/C (dose: 50.0 mg/kg/injection, schedule: Q01DX001 (ip), vehicle: saline) was 100 % of control; the T/C (dose: 50.0 mg/kg/injection, schedule: Q04DX003 (ip), vehicle: saline) is 109 % of control; the T/C (dose: 100.0 mg/kg/injection, schedule: Q01DX001 (ip), vehicle: saline) is 100 % of control. Moreover, the T/C under setting [1] was 100 % of control.
Take `CC(=O)N(O)c1ccc(Cl)cc1`: the T/C was 91 % of control and 100 % of control (dose: 25.0 mg/kg/injection, schedule: Q04DX002 (ip), vehicle: saline with Tween-80); 104 % of control and 110 % of control (dose: 50.0 mg/kg/injection, schedule: Q04DX002 (ip), vehicle: saline with Tween-80).
With `O=C1c2ccccc2C(=O)c2cc3c(cc21)CCCC3`, the T/C is 94 % of control (dose: 50.0 mg/kg/injection, schedule: Q01DX009 (ip), vehicle: water); 87 % of control (dose: 100.0 mg/kg/injection, schedule: Q01DX009 (ip), vehicle: water); 96 % of control (dose: 400.0 mg/kg/injection, schedule: Q01DX009 (ip), vehicle: water); 107 % of control (dose: 800.0 mg/kg/injection, schedule: Q01DX009 (ip), vehicle: water).
Turning to `NC(C(=O)O)C(O)c1ccc2c(c1)OCO2` (centres undefined), the T/C was 95 % of control under setting [2], 105 % of control under setting [3] and 95 % of control under setting [4].
Regarding `CCc1ccc(C(=O)C2CC2)cc1`, the T/C by setting is: (dose: 100.0 mg/kg/injection, schedule: Q04DX003 (ip), vehicle: saline with Tween-80) 104 % of control; (dose: 133.0 mg/kg/injection, schedule: Q01DX008 (ip), vehicle: saline with Tween-80) 108 % of control; (dose: 200.0 mg/kg/injection, schedule: Q01DX008 (ip), vehicle: saline with Tween-80) 116 % of control; under setting [11], 112 % of control; (dose: 300.0 mg/kg/injection, schedule: Q01DX008 (ip), vehicle: saline with Tween-80) 115 % of control; (dose: 400.0 mg/kg/injection, schedule: Q04DX003 (ip), vehicle: saline with Tween-80) 104 % of control.
As to `CO[C@H](C)[C@](O)(C(=O)OCC1=CCN2CC[C@@H](O)[C@H]12)C(C)C`, the T/C is, setting by setting: (dose: 25.0 mg/kg/injection, schedule: Q01DX010 (ip), vehicle: carboxymethylcellulose (CMC)) 111 % of control; (dose: 50.0 mg/kg/injection, schedule: Q01DX010 (ip), vehicle: carboxymethylcellulose (CMC)) 111 % of control; (dose: 100.0 mg/kg/injection, schedule: Q01DX010 (ip), vehicle: carboxymethylcellulose (CMC)) 111 % of control.
For `O=c1oc2cccc(O)c2c2c1CCCC2`, the T/C is, setting by setting: under setting [9], 100 % of control; (dose: 200.0 mg/kg/injection, schedule: Q04DX003 (ip), vehicle: Klucel (hydroxypropylcellulose) (HPC)) 104 % of control; under setting [10], 100 % of control.
With `SCc1ccccn1`, the T/C is 110 % of control (dose: 62.5 mg/kg/injection, schedule: Q01DX010 (ip), vehicle: carboxymethylcellulose (CMC)); 110 % of control (dose: 125.0 mg/kg/injection, schedule: Q01DX010 (ip), vehicle: carboxymethylcellulose (CMC)); 120 % of control (dose: 250.0 mg/kg/injection, schedule: Q01DX010 (ip), vehicle: carboxymethylcellulose (CMC)).
Consider `CC1=CC2=C(C=O)C(=O)[C@](C)(O)[C@@H](O)C2=CO1`, for which the T/C was 101 % of control (dose: 44.0 mg/kg/injection, schedule: Q04DX003 (ip), vehicle: Klucel (hydroxypropylcellulose) (HPC)); 108 % of control and 114 % of control (dose: 44.0 mg/kg/injection, schedule: Q04DX003 (ip), vehicle: saline with Tween-80); 115 % of control (dose: 66.0 mg/kg/injection, schedule: Q04DX003 (ip), vehicle: Klucel (hydroxypropylcellulose) (HPC)); 116 % of control (dose: 66.0 mg/kg/injection, schedule: Q04DX003 (ip), vehicle: saline with Tween-80); 108 % of control under setting [9]; 108 % of control (dose: 150.0 mg/kg/injection, schedule: Q04DX003 (ip), vehicle: saline with Tween-80). In addition, the T/C under setting [11] is 95 % of control.
For the compound `COc1ccc2nc3cc(Cl)ccc3c(NC(C)CCCN(CCCl)CCCl)c2c1` (centres undefined), the T/C (dose: 0.17 mg/kg/injection, schedule: Q04DX003 (ip), vehicle: saline) is 110 % of control; the T/C (dose: 0.25 mg/kg/injection, schedule: Q01DX009 (ip), vehicle: saline) is 154 % of control; the T/C (dose: 0.4 mg/kg/injection, schedule: Q01DX009 (ip), vehicle: saline) is 162 % of control; the T/C (dose: 0.62 mg/kg/injection, schedule: Q01DX009 (ip), vehicle: saline) is 159 % of control and 166 % of control; the T/C (dose: 0.93 mg/kg/injection, schedule: Q01DX009 (ip), vehicle: saline) is 87 % of control and 100 % of control; the T/C (dose: 1.0 mg/kg/injection, schedule: Q01DX009 (ip), vehicle: saline) is 118 % of control. Moreover, the T/C (dose: 4.0 mg/kg/injection, schedule: Q01DX009 (ip), vehicle: saline) was 95 % of control; the T/C (dose: 62.5 micrograms/kg/injection, schedule: Q01DX009 (ip), vehicle: saline) is 95 % of control; the T/C (dose: 125.0 micrograms/kg/injection, schedule: Q01DX009 (ip), vehicle: saline) was 113 % of control; the T/C (dose: 500.0 micrograms/kg/injection, schedule: Q01DX009 (ip), vehicle: saline) was 168 % of control; the T/C (dose: 1000.0 micrograms/kg/injection, schedule: Q01DX009 (ip), vehicle: saline) was 150 % of control.

The values above are taken from PubChem BioAssay AID328 (DTP/NCI, 2004).
